Measurements taken from US8835472B2, “Compounds, pharmaceutical compositions and uses thereof” (Boehringer Ingelheim International GmbH, priority 2010, dated 2014).

Each compound was assayed against human ACC2 (Homo sapiens (Human), UniProt O00763) (assay: ACC2 assay, spectrophotometric 384 well assay (NADH-linked, coupled lactate dehydrogenase/pyruvate kinase reaction)). Conditions: hACC2 construct lacking the 128 N-terminal amino acids; 25° C., 340 nm over 15 minutes.
Sequence of human ACC2 (O00763 129-2458): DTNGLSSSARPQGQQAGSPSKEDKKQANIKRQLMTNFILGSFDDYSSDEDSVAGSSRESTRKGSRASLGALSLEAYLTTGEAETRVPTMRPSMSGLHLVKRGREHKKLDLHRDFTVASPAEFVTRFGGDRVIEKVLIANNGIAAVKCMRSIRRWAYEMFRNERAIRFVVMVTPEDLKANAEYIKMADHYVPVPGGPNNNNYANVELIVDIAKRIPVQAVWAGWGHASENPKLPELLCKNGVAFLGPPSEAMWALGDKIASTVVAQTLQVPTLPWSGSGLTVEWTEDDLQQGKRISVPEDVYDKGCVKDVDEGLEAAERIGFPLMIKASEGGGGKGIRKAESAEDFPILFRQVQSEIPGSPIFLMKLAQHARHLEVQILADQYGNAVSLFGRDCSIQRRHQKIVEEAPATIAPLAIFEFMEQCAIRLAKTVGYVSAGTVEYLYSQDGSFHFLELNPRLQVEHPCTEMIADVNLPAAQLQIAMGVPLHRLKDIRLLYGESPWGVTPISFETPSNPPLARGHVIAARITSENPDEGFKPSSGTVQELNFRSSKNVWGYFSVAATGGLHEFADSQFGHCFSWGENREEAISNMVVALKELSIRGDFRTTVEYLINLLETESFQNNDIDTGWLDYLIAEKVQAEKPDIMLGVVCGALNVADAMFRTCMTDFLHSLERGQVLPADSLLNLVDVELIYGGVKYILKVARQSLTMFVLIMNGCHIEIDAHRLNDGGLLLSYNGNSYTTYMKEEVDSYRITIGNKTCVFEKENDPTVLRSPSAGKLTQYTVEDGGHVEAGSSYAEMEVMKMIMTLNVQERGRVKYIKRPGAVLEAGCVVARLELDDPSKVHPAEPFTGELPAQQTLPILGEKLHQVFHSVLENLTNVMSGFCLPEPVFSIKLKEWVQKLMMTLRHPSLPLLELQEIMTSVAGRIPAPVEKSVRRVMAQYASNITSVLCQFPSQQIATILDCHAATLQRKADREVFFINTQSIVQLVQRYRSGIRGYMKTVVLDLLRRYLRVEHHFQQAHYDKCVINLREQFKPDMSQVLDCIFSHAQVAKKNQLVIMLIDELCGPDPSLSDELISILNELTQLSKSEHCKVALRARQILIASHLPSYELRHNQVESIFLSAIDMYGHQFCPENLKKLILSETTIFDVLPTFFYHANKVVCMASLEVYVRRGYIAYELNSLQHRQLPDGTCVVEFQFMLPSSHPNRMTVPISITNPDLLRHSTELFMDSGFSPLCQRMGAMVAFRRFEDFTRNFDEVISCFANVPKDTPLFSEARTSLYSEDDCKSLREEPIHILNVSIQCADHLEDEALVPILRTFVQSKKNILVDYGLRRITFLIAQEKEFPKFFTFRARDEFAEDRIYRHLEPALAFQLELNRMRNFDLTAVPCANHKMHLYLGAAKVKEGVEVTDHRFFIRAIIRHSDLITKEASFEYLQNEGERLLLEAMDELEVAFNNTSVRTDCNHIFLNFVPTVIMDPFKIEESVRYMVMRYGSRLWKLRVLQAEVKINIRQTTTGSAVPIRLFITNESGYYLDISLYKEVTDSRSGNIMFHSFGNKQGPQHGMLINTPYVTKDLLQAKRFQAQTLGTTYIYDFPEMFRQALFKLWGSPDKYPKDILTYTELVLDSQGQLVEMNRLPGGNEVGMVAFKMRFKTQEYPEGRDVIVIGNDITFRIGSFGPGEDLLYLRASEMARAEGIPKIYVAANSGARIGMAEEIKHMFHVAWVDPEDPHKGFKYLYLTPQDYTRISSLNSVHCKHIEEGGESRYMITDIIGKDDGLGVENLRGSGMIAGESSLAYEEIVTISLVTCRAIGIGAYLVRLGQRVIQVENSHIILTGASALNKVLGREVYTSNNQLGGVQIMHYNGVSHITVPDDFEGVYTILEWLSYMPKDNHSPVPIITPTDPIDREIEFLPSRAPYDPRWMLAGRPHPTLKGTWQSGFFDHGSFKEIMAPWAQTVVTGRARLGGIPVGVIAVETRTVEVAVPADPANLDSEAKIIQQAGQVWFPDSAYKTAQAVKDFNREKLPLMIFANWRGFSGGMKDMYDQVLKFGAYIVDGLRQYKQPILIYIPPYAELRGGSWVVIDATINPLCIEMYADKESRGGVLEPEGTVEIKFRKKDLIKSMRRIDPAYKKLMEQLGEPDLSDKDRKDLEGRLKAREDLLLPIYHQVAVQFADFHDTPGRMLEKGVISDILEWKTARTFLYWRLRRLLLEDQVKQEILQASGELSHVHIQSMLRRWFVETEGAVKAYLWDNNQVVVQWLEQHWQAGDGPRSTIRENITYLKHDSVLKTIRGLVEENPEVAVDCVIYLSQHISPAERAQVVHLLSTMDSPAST
Format: biochemical
How it was run: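 N-terminally truncated human ACC2 (lacking 128 residues) expressed in insect cells; coupled PK/LDH read-out of ADP as NADH loss at 340 nm, 15 min, 25 °C. Tris pH 7.5 with citrate and KHCO3; 200 μM acetyl-CoA, 500 μM ATP, 1% DMSO.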
With CC(Cc1ccc(C#Cc2cnc(NC3CCC3)nc2)cc1)NC(=O)C1CC1 (centres unmarked) [Example 13.44] the IC50 was 320 nM.
For CC(Cc1ccc(C#Cc2cnc(N3CCCCC3)nc2)cc1)NC(=O)C1CC1 (centres unmarked) [Example 13.45], the IC50 was 910 nM.
CC(Cc1ccc(C#Cc2cnc(NCc3cccnc3)nc2)cc1)NC(=O)C1CC1 (centres unmarked) [Example 13.46] gave an IC50 of 2700 nM.
In the case of CC(Cc1ccc(C#Cc2cnc(NC3CCCC3)nc2)cc1)NC(=O)C1CC1 (centres unmarked) [Example 13.47], the IC50 is reported as 600 nM.
Work on CC(Cc1ccc(C#Cc2cnc(NC3CC3)nc2)cc1)NC(=O)C1CC1 (centres unmarked) [Example 13.48] yielded an IC50 of 1300 nM.
Work on CC(C)Nc1ncc(C#Cc2ccc(CC(C)NC(=O)C3CC3)cc2)cn1 (centres unmarked) [Example 13.49] yielded an IC50 of 2600 nM.
CCC(C)Nc1ncc(C#Cc2ccc(CC(C)NC(=O)C3CC3)cc2)cn1 (centres unmarked) [Example 13.50] showed an IC50 of 1500 nM.
With CC(Cc1ccc(C#Cc2cnc(N3CCC3)nc2)cc1)NC(=O)C1CC1 (centres unmarked) [Example 13.51] the IC50 was 2200 nM.
CCNc1ncc(C#Cc2ccc(CC(C)NC(=O)C3CC3)cc2)cn1 (centres unmarked) [Example 13.52] was tested, and the IC50 was 5200 nM.
CC(Cc1ccc(C#Cc2cnc(NCCF)nc2)cc1)NC(=O)C1CC1 (centres unmarked) [Example 13.53] showed an IC50 of 5200 nM.
CC(Cc1ccc(C#Cc2cnc(NCc3ccccc3)nc2)cc1)NC(=O)C1CC1 (centres unmarked) [Example 13.54] was tested, and the IC50 was 200 nM.
Work on CC(=O)NC(C)Cc1ccc(C#Cc2cnc(NCc3ccccc3C)nc2)cc1 (centres unmarked) [Example 13.55] yielded an IC50 of 130 nM.
CC(=O)NC(C)Cc1ccc(C#Cc2cnc(NCc3cccc(C)c3)nc2)cc1 (centres unmarked) [Example 13.56] gave an IC50 of 970 nM.
CC(=O)NC(C)Cc1ccc(C#Cc2cnc(N3CCC(C)(C)CC3)nc2)cc1 (centres unmarked) [Example 13.57] was tested, and the IC50 was 220 nM.
Work on CC(=O)NC(C)Cc1ccc(C#Cc2cnc(N(C)C)nc2)cc1 (centres unmarked) [Example 13.58] yielded an IC50 of 1200 nM.
CC(=O)NC(C)Cc1ccc(C#Cc2cnc(NCC(F)(F)F)nc2)cc1 (centres unmarked) [Example 13.59] gave an IC50 of 360 nM.
Compound CNc1ncc(C#Cc2ccc(CC(C)NC(C)=O)cc2)cn1 (centres unmarked) [Example 13.60] has an IC50 of 250 nM.
Work on CC(=O)NC(C)Cc1ccc(C#Cc2cnc(NCc3cnn(C)c3)nc2)cc1 (centres unmarked) [Example 13.61] yielded an IC50 of 3800 nM.
For CC(=O)NC(C)Cc1ccc(C#Cc2cnc(N[C@H]3CCc4ccccc43)nc2)cc1 (some centres unmarked) [Example 13.62], the IC50 was 330 nM.
For CC(=O)NC(C)Cc1ccc(C#Cc2cnc(N[C@@H]3CCc4ccccc43)nc2)cc1 (some centres unmarked) [Example 13.63], the IC50 was 200 nM.
CC(=O)NC(C)Cc1ccc(C#Cc2cnc(N3Cc4ccccc4C3)nc2)cc1 (centres unmarked) [Example 13.64] showed an IC50 of 800 nM.
CC(=O)NC(C)Cc1ccc(C#Cc2cnc(NCCF)nc2)cc1 (centres unmarked) [Example 13.65] showed an IC50 of 1600 nM.
Work on CC(=O)NC(C)Cc1ccc(C#Cc2cnc(NC(C)C3CC3)nc2)cc1 (centres unmarked) [Example 13.66] yielded an IC50 of 150 nM.
CC(=O)NC(C)Cc1ccc(C#Cc2cnc(NCC3CC3(C)C)nc2)cc1 (centres unmarked) [Example 13.67] was tested, and the IC50 was 660 nM.
Work on CC(=O)NC(C)Cc1ccc(C#Cc2cnc(N3CCC(C)(C)C3)nc2)cc1 (centres unmarked) [Example 13.68] yielded an IC50 of 230 nM.
CC(=O)NC(C)Cc1ccc(C#Cc2cnc(NCc3csc(C)n3)nc2)cc1 (centres unmarked) [Example 13.69] showed an IC50 of 5000 nM.
With CC(=O)NC(C)Cc1ccc(C#Cc2cnc(NCc3ncccn3)nc2)cc1 (centres unmarked) [Example 13.70] the IC50 was 6800 nM.
CC(=O)NC(C)Cc1ccc(C#Cc2cnc(N3CCC4(CCC4)C3)nc2)cc1 (centres unmarked) [Example 13.71] was tested, and the IC50 was 210 nM.
CC(=O)NC(C)Cc1ccc(C#Cc2cnc(N3CCC4(CC4)C3)nc2)cc1 (centres unmarked) [Example 13.72] showed an IC50 of 190 nM.
For CC(=O)NC(C)Cc1ccc(C#Cc2cnc(N3CCC4(CCCC4)C3)nc2)cc1 (centres unmarked) [Example 13.73], the IC50 was 280 nM.
COC1(C)CCN(c2ncc(C#Cc3ccc(CC(C)NC(C)=O)cc3)cn2)CC1 (centres unmarked) [Example 13.74] gave an IC50 of 1700 nM.
CC(=O)NC(C)Cc1ccc(C#Cc2cnc(NCCC(F)(F)F)nc2)cc1 (centres unmarked) [Example 13.75] was tested, and the IC50 was 170 nM.
CC(=O)NC(C)Cc1ccc(C#Cc2cnc(NCC3CCCC3)nc2)cc1 (centres unmarked) [Example 13.76] was tested, and the IC50 was 600 nM.
Compound CC(=O)NC(C)Cc1ccc(C#Cc2cnc(N3CCCC3)nc2)cc1 (centres unmarked) [Example 13.77] has an IC50 of 220 nM.
Work on CC(=O)NC(C)Cc1ccc(C#Cc2cnc(NC3CC3)nc2)cc1 (centres unmarked) [Example 13.78] yielded an IC50 of 130 nM.
